Tests used:
Test in all cases: Greenhouse postemergence herbicidal safening trial, visual injury after 20-22 d
[1] = tested on: common rice (ORYSA); format: in vivo, Oryza sativa
From the text: (§1) Greenhouse Trial Methodology—Evaluation of Postemergence Herbicidal Safening in Crops
(§2) Seeds of the desired test plant species were planted in a 90:10% v/v (volume/volume) mixture of PRO-MIX® BX (Premier Tech Horticulture, Quakertown, PA, USA) and PROFILE® GREENS GRADE™ (Profile Products LLC, Buffalo Grove, IL, USA) planting mixture, which typically has a pH of 5.2 to 6.2 and an organic matter content of at least 50 percent, in plastic pots with a surface area of 103.2 square centimeters (cm^2). When required to ensure good germination and healthy plants, a fungicide treatment and/or other chemical or physical treatment was applied. The plants were grown for 7-36 days (d) in a greenhouse with an approximate 14-hour (h) photo-period which was maintained at about 23° C. during the day and 22° C. during the night. Nutrients and water were added on a regular basis and supplemental lighting was provided with overhead metal halide 1000-Watt lamps as necessary. The plants were employed for testing when they reached the second or third true leaf stage.
(§3) Emulsifiable concentrates of each of each pyridine carboxylate herbicide (Compound A or Compound B) were prepared at 100 grams acid equivalent per liter (g ae/L). An aliquot of each emulsifiable concentrate was placed in a 25 mL glass vial and diluted with an aqueous mixture of 1.25% (v/v) ACTIROB® B esterified rapeseed oil (Bayer Crop Science, Research Triangle Park, NC, USA) or MSO® Concentrate with LECI-TECH® methylated soybean oil (Loveland Products, Loveland, CO, USA) to obtain concentrated stock solutions at the highest application rate for each herbicide, based upon a 12 milliliter (mL) application volume at a rate of 187 liters per hectare (L/ha). The concentrated stock solutions were further diluted with an aqueous mixture of 1.25% v/v ACTIROB® B or MSO® Concentrate with LECI-TECH® to obtain stock solutions at reduced application rates for each herbicide. Spray solutions of the herbicide combinations (Compound A or Compound B plus safener) were prepared by adding weighed amounts or aliquots of the azole carboxylate safener to the stock solutions of Compound A or Compound B to form 12-mL spray solutions in two-way combinations.
(§4) The spray solutions were applied to the plant material with an overhead Mandel track sprayer equipped with 8002E nozzles calibrated to deliver 187 L/ha over an application area of 0.503 square meters (m^2) at a spray height of 18 inches (43 centimeters (cm)) above the average plant canopy. Control plants were sprayed in the same manner with the solvent blank. All herbicide (component a) application rates are given as “g ae/ha” and all safener (component b) application rates are given as “g ai/ha.”
(§5) The treated plants and control plants were placed in a greenhouse as described above and watered by sub-irrigation to prevent wash-off of the test compounds. After 20-22 d, the condition of the test plants as compared with that of the control plants was determined visually and scored on a scale of 0 to 100 percent where 0 corresponds to no injury and 100 corresponds to complete kill.

[2] = tested on: Russian thistle (SASKR); format: in vivo, Salsola kali; conditions: applied alone
From the text: as §1, §2, §3, §4, §5

[3] = tested on: pigweed (AMARE); format: in vivo, Amaranthus retroflexus
From the text: as §1, §2, §3, §4, §5

[4] = tested on: nutsedge (CYPES); format: in vivo, Cyperus esculentus
From the text: as §1, §2, §3, §4, §5

[5] = tested on: common sunflower (HELAN); format: in vivo, Helianthus annuus
From the text: as §1, §2, §3, §4, §5

[6] = tested on: velvetleaf (ABUTH); format: in vivo, Abutilon theophrasti
From the text: as §1, §2, §3, §4, §5

[7] = tested on: wild oat (AVEFA); format: in vivo, Avena fatua
From the text: as §1, §2, §3, §4, §5

[8] = tested on: common lambsquarters (CHEAL); format: in vivo, Chenopodium album L.
From the text: as §1, §2, §3, §4, §5

[9] = tested on: soybean (GLXMA); format: in vivo, Glycine max
From the text: as §1, §2, §3, §4, §5

[10] = tested on: wild buckwheat (POLCO); format: in vivo, Polygonum convolvulus
From the text: as §1, §2, §3, §4, §5

[11] = tested on: giant foxtail (SETFA); format: in vivo, Setaria faberi
From the text: as §1, §2, §3, §4, §5

[12] = tested on: Johnson grass (SORHA); format: in vivo, Sorghum halepense
From the text: as §1, §2, §3, §4, §5

Measured: % visual injury Ob

CCOC(=O)C1=NN(c2ccc(Cl)cc2Cl)C(C)(C(=O)OCC)C1 (stereo not drawn) [Mefenpyr-diethyl, mefenpyr-diethyl]
0%: [1]; Mefenpyr-diethyl 20 g/ha | [1]; Mefenpyr-diethyl 40 g/ha | [1]; Mefenpyr-diethyl 80 g/ha | [2]; 10 g/ha | [2]; 20 g/ha | [2]; 40 g/ha | [3]; Mefenpyr-diethyl 20 g/ha | [3]; Mefenpyr-diethyl 40 g/ha | [3]; Mefenpyr-diethyl 80 g/ha | [3]; applied alone, 20 g/ha | [3]; applied alone, 40 g/ha | [3]; applied alone, 80 g/ha | [3]; applied alone, 120 g/ha | [4]; Mefenpyr-diethyl 20 g/ha | [4]; Mefenpyr-diethyl 40 g/ha | [4]; Mefenpyr-diethyl 80 g/ha | [4]; applied alone, 20 g/ha | [4]; applied alone, 40 g/ha | [4]; applied alone, 80 g/ha | [4]; applied alone, 120 g/ha | [5]; Mefenpyr-diethyl 20 g/ha | [5]; Mefenpyr-diethyl 40 g/ha | [5]; Mefenpyr-diethyl 80 g/ha | [5]; applied alone, 20 g/ha | [5]; applied alone, 40 g/ha | [5]; applied alone, 80 g/ha | [5]; applied alone, 120 g/ha | [6]; Mefenpyr-diethyl 20 g/ha | [6]; Mefenpyr-diethyl 40 g/ha | [6]; Mefenpyr-diethyl 80 g/ha | [7]; Mefenpyr-diethyl 20 g/ha | [7]; Mefenpyr-diethyl 40 g/ha | [7]; Mefenpyr-diethyl 80 g/ha | [8]; Mefenpyr-diethyl 20 g/ha | [8]; Mefenpyr-diethyl 40 g/ha | [8]; Mefenpyr-diethyl 80 g/ha | [9]; Mefenpyr-diethyl 20 g/ha | [9]; Mefenpyr-diethyl 40 g/ha | [9]; Mefenpyr-diethyl 80 g/ha | [10]; Mefenpyr-diethyl 20 g/ha | [10]; Mefenpyr-diethyl 40 g/ha | [10]; Mefenpyr-diethyl 80 g/ha | [11]; Mefenpyr-diethyl 20 g/ha | [11]; Mefenpyr-diethyl 40 g/ha | [11]; Mefenpyr-diethyl 80 g/ha | [12]; Mefenpyr-diethyl 20 g/ha | [12]; Mefenpyr-diethyl 40 g/ha | [12]; Mefenpyr-diethyl 80 g/ha

Source: US12376590B2, “Compositions comprising pyridine carboxylate herbicides and azole carboxylate safeners” (Corteva Agriscience LLC, priority 2018, dated 2025)
